# According to PMC10465233, “Lys-urea-Aad, Lys-urea-Cmc and Lys-urea-Cms as potential pharmacophores for the design of PSMA-targeted radioligands to reduce off-target uptake in kidneys and salivary glands” (Theranostics, 2023):
# Where “and” joins values, the source holds several entries; their conditions need not be identical. Identical values can stand only once. Like-named read-outs stand apart in the source and are kept apart here.
# Columns and labels:
# [1] = target: T1, PSMA (Homo sapiens, UniProt Q04609); assay: In vitro competition binding assay, LNCaP cells, [^18F]DCFPyL as radioligand
# T1 construct: host or cells: LNCaP prostate cancer cells
# Method: The LNCaP cells obtained from ATCC (via Cedarlane, Burlington, Canada) were cultured in RPMI 1640 medium supplemented with 10% FBS, penicillin (100 U/mL) and streptomycin (100 μg/mL) at 37 °C in a Panasonic Healthcare (Tokyo, Japan) MCO-19AIC humidified incubator containing 5% CO2. The cells were confirmed pathogen free by the IMPACT Rodent Pathogen Test (IDEXX BioAnalytics). Cells grown to 80-90% confluence were then washed with sterile PBS and collected after trypsinization. The cell concentration was counted in triplicate using a hemocytometer and a manual laboratory counter.
# In vitro competition binding assays were conducted as previously reported using LNCaP prostate cancer cells and [^18F]DCFPyL as the radioligand [10]-[12],[14]. Briefly, LNCaP cells (400,000/well) were plated onto a 24-well poly-D-lysine coated plate for 48 h. Growth media was removed and replaced with HEPES buffered saline (50 mM HEPES, pH 7.5, 0.9% sodium chloride) and the cells were incubated for 1 h at 37 °C. [^18F]DCFPyL (0.1 nM) was added to each well (in triplicate) containing various concentrations (0.5 mM - 0.05 nM) of tested ligands. Non-specific binding was determined in the presence of 10 µM non-radiolabeled DCFPyL. The assay mixtures were further incubated for 1 h at 37 °C with gentle agitation. Then, the buffer and hot ligand were removed, and cells were washed twice with cold HEPES buffered saline. To harvest the cells, 400 µL of 0.25% trypsin solution was added to each well. Radioactivity was measured on an automatic gamma counter. Nonlinear regression analyses and Ki calculations were performed using the GraphPad Prism 7 software.
# [2] = target: T1, PSMA; parameters: method as in PMID 36168623; details: LNCaP cells; cited from earlier work
# [3] = test system: LNCaP tumor-bearing mice; assay: PET/CT imaging in LNCaP tumor-bearing mice; type: in vivo, mouse; details: 1 h post-injection
# Method: Imaging, biodistribution and radioligand therapy experiments were performed following previously published procedures using male NOD-scid IL2Rg^null (NSG) or NOD.Cg-Rag1^tm1MomIl2rg^tm1Wjl/SzJ (NRG) mice [10]-[12],[14]-[15]. The experiments were conducted according to the guidelines established by the Canadian Council on Animal Care and approved by Animal Ethics Committee of the University of British Columbia. The mice were briefly sedated by inhalation of 2% isoflurane in oxygen, and implanted subcutaneously with 1×10^7 LNCaP cells behind the left shoulder. The mice were imaged or used in biodistribution studies when the tumor grew to 5-8 mm in diameter over a period of 4-5 weeks.
# PET/CT imaging experiments were conducted using a Siemens (Knoxville, TN, USA) Inveon micro PET/CT scanner. Each tumor-bearing mouse was injected with ~6-8 MBq of ^68Ga-labeled tracer through a lateral caudal tail vein. After 50 min post-injection, a 10-min CT scan was conducted first for localization and attenuation correction after segmentation for reconstructing the PET images, followed by a 10-min static PET imaging acquisition.
# [4] = test system: LNCaP tumor-bearing mice; assay: Ex vivo biodistribution in LNCaP tumor-bearing mice; parameters: species or system mouse; details: 1 h post-injection
# In short: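 Male NSG or NRG mice bearing subcutaneous LNCaP tumours (5-8 mm) were injected with 2-4 MBq radioligand, with 0.5 mg nonradioactive DCFPyL co-injected for blocking. At set time points, blood and organs were collected, weighed and gamma-counted.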
# [5] = blocked, co-injected with DCFPyL (0.5 mg)
# T1 sequence (Q04609 whole entry): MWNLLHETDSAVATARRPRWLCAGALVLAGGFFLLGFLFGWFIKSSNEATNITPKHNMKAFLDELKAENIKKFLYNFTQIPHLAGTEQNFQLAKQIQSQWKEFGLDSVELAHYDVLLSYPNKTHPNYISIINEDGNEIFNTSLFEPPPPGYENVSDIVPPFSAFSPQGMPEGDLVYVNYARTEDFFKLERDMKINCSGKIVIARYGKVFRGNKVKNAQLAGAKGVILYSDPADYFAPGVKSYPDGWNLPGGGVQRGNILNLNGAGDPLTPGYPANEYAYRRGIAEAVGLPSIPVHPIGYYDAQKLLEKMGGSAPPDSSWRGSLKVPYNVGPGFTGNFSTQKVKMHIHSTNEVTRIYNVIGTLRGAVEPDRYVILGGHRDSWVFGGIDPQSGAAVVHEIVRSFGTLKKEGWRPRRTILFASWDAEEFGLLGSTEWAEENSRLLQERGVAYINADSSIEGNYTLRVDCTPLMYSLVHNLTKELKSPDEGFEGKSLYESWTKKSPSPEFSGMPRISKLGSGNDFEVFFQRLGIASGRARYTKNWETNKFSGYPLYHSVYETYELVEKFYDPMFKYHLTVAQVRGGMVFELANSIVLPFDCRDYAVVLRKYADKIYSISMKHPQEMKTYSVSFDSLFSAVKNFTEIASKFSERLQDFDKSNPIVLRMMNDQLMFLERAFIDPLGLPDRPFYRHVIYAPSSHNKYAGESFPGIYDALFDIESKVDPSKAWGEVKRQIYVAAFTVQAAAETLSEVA
smiles,measurement,setting,value
O=C([O-])CN1CCN(CC(=O)[O-])CCN(CC(=O)NCC2CCC(C(=O)NC(Cc3c4ccccc4cc4ccccc34)C(=O)NCCCCC(NC(=O)NC(CSCC(=O)O)C(=O)O)C(=O)O)CC2)CCN(CC(=O)[O-])CC1.[Ga+3] (stereo not drawn) [Ga-HTK03177],Ki,[1],5 ± 2.4 nM
O=C([O-])CN1CCN(CC(=O)[O-])CCN(CC(=O)NCC2CCC(C(=O)NC(Cc3c4ccccc4cc4ccccc34)C(=O)NCCCCC(NC(=O)NC(CCCC(=O)O)C(=O)O)C(=O)O)CC2)CCN(CC(=O)[O-])CC1.[Ga+3] (stereo not drawn) [Ga-HTK03149],Ki,[2],6.99 ± 0.8 nM
O=C([O-])CN1CCN(CC(=O)[O-])CCN(CC(=O)NCC2CCC(C(=O)NC(Cc3c4ccccc4cc4ccccc34)C(=O)NCCCCC(NC(=O)NC(CSCC(=O)O)C(=O)O)C(=O)O)CC2)CCN(CC(=O)[O-])CC1.[68Ga+3] (stereo not drawn) [[^68Ga]Ga-HTK03177],Kidney uptake in PET images,[3],moderate
same,Adrenal glands uptake,[4],0.46 ± 0.17 %ID/g
same,Blood uptake,[4],0.70 ± 0.06 %ID/g
same,Blood:Salivary gland uptake ratio,[4],3.14 ± 0.19
same,Bone uptake,[4],0.10 ± 0.03 %ID/g
same,Brain uptake,[4],0.02 ± 0.00 %ID/g
same,Fat uptake,[4],0.09 ± 0.04 %ID/g
same,Heart uptake,[4],0.21 ± 0.01 %ID/g
same,Intestines uptake,[4],0.21 ± 0.02 %ID/g
same,Kidneys uptake,[4],7.76±1.00 %ID/g and < 8.0 %ID/g
same,Lacrimal glands uptake,[4],0.12 ± 0.06 %ID/g
same,Liver uptake,[4],0.33 ± 0.20 %ID/g
same,Lungs uptake,[4],0.61 ± 0.08 %ID/g
same,Muscle uptake,[4],0.10 ± 0.01 %ID/g
same,Pancreas uptake,[4],0.14 ± 0.01 %ID/g
same,Salivary glands uptake,[4],0.22±0.02 %ID/g and < 0.25 %ID/g
same,Spleen uptake,[4],0.42 ± 0.15 %ID/g
same,Stomach uptake,[4],0.15 ± 0.09 %ID/g
same,Testes uptake,[4],0.25 ± 0.07 %ID/g
same,Thyroid uptake,[4],0.23 ± 0.01 %ID/g
same,Tumor uptake,[4],24.7±6.85 %ID/g and 21-25 %ID/g
same,Tumor:Blood uptake ratio,[4],36.1±12.5
same,Tumor:Kidney uptake ratio,[4],3.25±1.16
same,Tumor:Muscle uptake ratio,[4],265±103
same,Tumor:Salivary gland uptake ratio,[4],112±33.1
same,Adrenal glands uptake,[4]; [5],0.61 ± 0.38 %ID/g
same,Blood uptake,[4]; [5],0.85 ± 0.15 %ID/g
same,Blood:Salivary gland uptake ratio,[4]; [5],6.07 ± 2.53
same,Bone uptake,[4]; [5],0.24 ± 0.17 %ID/g
same,Brain uptake,[4]; [5],0.02 ± 0.00 %ID/g
same,Fat uptake,[4]; [5],0.20 ± 0.16 %ID/g
same,Heart uptake,[4]; [5],0.23 ± 0.04 %ID/g
same,Intestines uptake,[4]; [5],0.69 ± 0.76 %ID/g
same,Kidneys uptake,[4]; [5],1.73 ± 0.36 %ID/g
same,Lacrimal glands uptake,[4]; [5],0.15 ± 0.10 %ID/g
same,Liver uptake,[4]; [5],0.37 ± 0.22 %ID/g
same,Lungs uptake,[4]; [5],0.54 ± 0.06 %ID/g
same,Muscle uptake,[4]; [5],0.13 ± 0.05 %ID/g
same,Pancreas uptake,[4]; [5],0.54 ± 0.54 %ID/g
same,Salivary glands uptake,[4]; [5],0.15 ± 0.04 %ID/g
same,Spleen uptake,[4]; [5],0.25 ± 0.18 %ID/g
same,Stomach uptake,[4]; [5],0.12 ± 0.05 %ID/g
same,Testes uptake,[4]; [5],0.36 ± 0.14 %ID/g
same,Thyroid uptake,[4]; [5],0.21 ± 0.06 %ID/g
same,Tumor uptake,[4]; [5],0.74 ± 0.12 %ID/g
same,Tumor:Blood uptake ratio,[4]; [5],0.89 ± 0.19
same,Tumor:Kidney uptake ratio,[4]; [5],0.43 ± 0.05
same,Tumor:Muscle uptake ratio,[4]; [5],5.50 ± 2.68
same,Tumor:Salivary gland uptake ratio,[4]; [5],5.05 ± 0.77
same,Reduction of average kidney uptake by co-injection of DCFPyL,[4]; DCFPyL 0.5 mg,78%
COc1ccc(CCCC(=O)NCC(=O)N[C@@H](CCCCNC(=O)CN2CCN(CC(=O)[O-])CCN(CC(=O)[O-])CCN(CC(=O)[O-])CC2)C(=O)NC[C@H]2CC[C@H](C(=O)N[C@@H](Cc3c4ccccc4cc4ccccc34)C(=O)NCCCC[C@H](NC(=O)N[C@@H](CCCC(=O)O)C(=O)O)C(=O)O)CC2)cc1.[Lu+3] [Lu-HTK03170],Ki,[1],1.6 ± 0.4 nM
COc1ccc(CCCC(=O)NCC(=O)N[C@@H](CCCCNC(=O)CN2CCN(CC(=O)[O-])CCN(CC(=O)[O-])CCN(CC(=O)[O-])CC2)C(=O)NC[C@H]2CC[C@H](C(=O)N[C@@H](Cc3c4ccccc4cc4ccccc34)C(=O)NCCCC[C@H](NC(=O)N[C@@H](COCC(=O)O)C(=O)O)C(=O)O)CC2)cc1.[Lu+3] [Lu-HTK04028],Ki,[1],13.9 ± 3.2 nM
